# According to PubChem BioAssay (NCI):
#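 In this assay, cells in 96-well plates receive the compound at five concentrations for 48 hours. Endpoints are linearly interpolated between the surrounding concentrations. Definition used: TGI = concentration required for complete inhibition of growth.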
# Assays:
# Experiment in all cases: DTP human tumour cell line panel, 48 h
# [1] = test system: RXF-631 renal
# [2] = test system: K-562 leukemia
# [3] = test system: A549 NSCLC
# [4] = test system: M14 melanoma
# [5] = test system: U251 CNS
# [6] = test system: HCT-116 colon
# [7] = test system: OVCAR-8 ovarian
# [8] = test system: UO-31 renal
# [9] = test system: LOX IMVI melanoma
# [10] = test system: UACC-62 melanoma
# [11] = test system: RXF 393 renal
# [12] = test system: NCI-H522 lung
# [13] = test system: SW-620 colon
# [14] = test system: SK-OV-3 ovarian
# [15] = test system: SK-MEL-5 melanoma
# [16] = test system: DMS 114 small cell lung
# [17] = test system: SNB-19 CNS
# [18] = test system: TK-10 renal
# [19] = test system: OVCAR-3 ovarian
# [20] = test system: DLD-1 colon
# [21] = test system: MOLT-4 leukemia
# [22] = test system: NCI-H23 lung
# [23] = test system: LXFL 529 NSCLC
# [24] = test system: CCRF-CEM leukemia
# [25] = test system: SK-MEL-2 melanoma
# [26] = test system: HCT-15 colon
# [27] = test system: SN12C renal
# [28] = test system: SF-539 CNS
# [29] = test system: DMS 273 small cell lung
# [30] = test system: NCI-H460 lung
# [31] = test system: HL-60(TB) leukemia
# [32] = test system: OVCAR-5 ovarian
# [33] = test system: SNB-78 CNS
# [34] = test system: 786-0 renal
# [35] = test system: SR leukemia
# [36] = test system: SF-268 CNS
# [37] = test system: UACC-257 melanoma
# [38] = test system: HOP-62 NSCLC
# [39] = test system: RPMI-8226 leukemia
# [40] = test system: XF 498 CNS
# [41] = test system: A498 renal
# [42] = test system: SF-295 CNS
# [43] = test system: SNB-75 CNS
# [44] = test system: COLO 205 colon
# [45] = test system: KM12 colon
# [46] = test system: HT29 colon
# [47] = test system: HCC-2998 colon
# [48] = test system: OVCAR-4 ovarian
# [49] = test system: SK-MEL-28 melanoma
# [50] = test system: ACHN renal
# [51] = test system: M19-MEL melanoma
# [52] = test system: EKVX NSCLC
# [53] = test system: MALME-3M melanoma
# [54] = test system: NCI-H226 lung
# [55] = test system: IGROV1 ovarian
# [56] = test system: HOP-92 NSCLC
# [57] = test system: HOP-18 NSCLC
# [58] = test system: CAKI-1 renal
# [59] = test system: KM20L2 colon
# [60] = test system: NCI/ADR-RES ovarian
# [61] = test system: HS 578T breast
# [62] = test system: MCF7 breast
# [63] = test system: MDA-MB-231 breast
# [64] = test system: MDA-N
# [65] = test system: DU-145 prostate
# [66] = test system: MDA-MB-435
# [67] = test system: PC-3 prostate
# [68] = test system: BT-549 breast
# [69] = test system: T-47D breast
compound,measurement,setting,value
COc1ccc(O)c2c(=O)ccccc12,TGI,[1],> 100 µM
same,TGI,[2],> 100 µM
same,TGI,[3],> 100 µM
same,TGI,[4],> 100 µM
same,TGI,[5],> 100 µM
same,TGI,[6],> 100 µM
same,TGI,[7],> 100 µM
same,TGI,[8],> 100 µM
same,TGI,[9],> 100 µM
same,TGI,[10],> 100 µM
same,TGI,[11],> 100 µM
same,TGI,[12],91.7 µM
same,TGI,[13],> 100 µM
same,TGI,[14],> 100 µM
same,TGI,[15],> 100 µM
same,TGI,[16],> 100 µM
same,TGI,[17],> 100 µM
same,TGI,[18],60 µM
same,TGI,[19],> 100 µM
same,TGI,[20],> 100 µM
same,TGI,[21],> 100 µM
same,TGI,[22],> 100 µM
same,TGI,[23],> 100 µM
same,TGI,[24],> 100 µM
same,TGI,[25],> 100 µM
same,TGI,[26],> 100 µM
same,TGI,[27],> 100 µM
same,TGI,[28],> 100 µM
same,TGI,[29],> 100 µM
same,TGI,[30],> 100 µM
same,TGI,[31],> 100 µM
same,TGI,[32],> 100 µM
same,TGI,[33],> 100 µM
same,TGI,[34],> 100 µM
same,TGI,[35],> 100 µM
same,TGI,[36],> 100 µM
same,TGI,[37],> 100 µM
same,TGI,[38],> 100 µM
same,TGI,[39],> 100 µM
same,TGI,[40],> 100 µM
same,TGI,[41],> 100 µM
same,TGI,[42],> 100 µM
same,TGI,[43],> 100 µM
same,TGI,[44],> 100 µM
same,TGI,[45],> 100 µM
same,TGI,[46],> 100 µM
same,TGI,[47],> 100 µM
same,TGI,[48],> 100 µM
same,TGI,[49],> 100 µM
same,TGI,[50],> 100 µM
same,TGI,[51],> 100 µM
same,TGI,[52],> 100 µM
same,TGI,[53],> 100 µM
same,TGI,[54],> 100 µM
same,TGI,[55],> 100 µM
same,TGI,[56],> 100 µM
C#CCN(Cc1ccc2nc(-c3ccccc3)c(Cl)nc2c1)c1cc(OC)c(OC)c(OC)c1,TGI,[1],> 100 µM
same,TGI,[2],> 100 µM
same,TGI,[3],> 100 µM
same,TGI,[4],> 100 µM
same,TGI,[5],> 100 µM
same,TGI,[6],> 100 µM
same,TGI,[7],> 100 µM
same,TGI,[8],> 100 µM
same,TGI,[9],40.4 µM
same,TGI,[10],> 100 µM
same,TGI,[11],> 100 µM
same,TGI,[12],> 100 µM
same,TGI,[13],34.2 µM
same,TGI,[14],> 100 µM
same,TGI,[15],> 100 µM
same,TGI,[16],51.8 µM
same,TGI,[57],> 100 µM
same,TGI,[17],> 100 µM
same,TGI,[18],> 100 µM
same,TGI,[19],> 100 µM
same,TGI,[20],> 100 µM
same,TGI,[21],> 100 µM
same,TGI,[22],> 100 µM
same,TGI,[23],> 100 µM
same,TGI,[24],> 100 µM
same,TGI,[25],> 100 µM
same,TGI,[26],> 100 µM
same,TGI,[27],> 100 µM
same,TGI,[28],> 100 µM
same,TGI,[29],> 100 µM
same,TGI,[30],> 100 µM
same,TGI,[31],> 100 µM
same,TGI,[32],> 100 µM
same,TGI,[33],> 100 µM
same,TGI,[34],> 100 µM
same,TGI,[36],> 100 µM
same,TGI,[37],> 100 µM
same,TGI,[38],> 100 µM
same,TGI,[58],> 100 µM
same,TGI,[39],43.5 µM
same,TGI,[59],> 100 µM
same,TGI,[41],> 100 µM
same,TGI,[42],> 100 µM
same,TGI,[43],> 100 µM
same,TGI,[44],> 100 µM
same,TGI,[45],> 100 µM
same,TGI,[46],> 100 µM
same,TGI,[47],> 100 µM
same,TGI,[48],> 100 µM
same,TGI,[49],> 100 µM
same,TGI,[50],> 100 µM
same,TGI,[51],> 100 µM
same,TGI,[52],> 100 µM
same,TGI,[53],> 100 µM
same,TGI,[54],> 100 µM
same,TGI,[55],> 100 µM
same,TGI,[56],> 100 µM
O=c1oc2ccccc2c(O)c1C(C/C(CCN1CCCC1)=N/O)c1ccccc1 (configuration not stated),TGI,[1],> 100 µM
same,TGI,[60],> 100 µM
same,TGI,[61],> 100 µM
same,TGI,[2],> 31.6 µM
same,TGI,[3],> 100 µM
same,TGI,[62],> 100 µM
same,TGI,[4],> 100 µM
same,TGI,[5],> 100 µM
same,TGI,[6],> 100 µM
same,TGI,[7],> 100 µM
same,TGI,[8],> 100 µM
same,TGI,[9],> 100 µM
same,TGI,[10],> 100 µM
same,TGI,[11],> 100 µM
same,TGI,[12],> 100 µM
same,TGI,[13],> 100 µM
same,TGI,[14],> 100 µM
same,TGI,[63],> 100 µM
same,TGI,[15],> 100 µM
same,TGI,[16],> 100 µM
same,TGI,[17],> 100 µM
same,TGI,[18],> 100 µM
same,TGI,[19],> 100 µM
same,TGI,[20],> 100 µM
same,TGI,[21],> 100 µM
same,TGI,[22],> 100 µM
same,TGI,[64],> 100 µM
same,TGI,[23],> 100 µM
same,TGI,[25],> 100 µM
same,TGI,[26],> 100 µM
same,TGI,[27],> 100 µM
same,TGI,[28],> 100 µM
same,TGI,[30],> 100 µM
same,TGI,[31],> 31.6 µM
same,TGI,[32],> 100 µM
same,TGI,[34],> 100 µM
same,TGI,[35],> 100 µM
same,TGI,[36],> 100 µM
same,TGI,[37],> 100 µM
same,TGI,[38],> 100 µM
same,TGI,[58],> 100 µM
same,TGI,[39],> 100 µM
same,TGI,[40],> 100 µM
same,TGI,[65],> 100 µM
same,TGI,[59],> 100 µM
same,TGI,[41],> 100 µM
same,TGI,[42],> 100 µM
same,TGI,[66],> 100 µM
same,TGI,[43],> 100 µM
same,TGI,[44],> 100 µM
same,TGI,[45],> 100 µM
same,TGI,[46],> 100 µM
same,TGI,[67],> 100 µM
same,TGI,[47],> 100 µM
same,TGI,[48],> 100 µM
same,TGI,[49],> 100 µM
same,TGI,[50],> 100 µM
same,TGI,[51],> 100 µM
same,TGI,[52],> 100 µM
same,TGI,[53],> 100 µM
same,TGI,[54],> 100 µM
same,TGI,[55],> 100 µM
same,TGI,[56],> 100 µM
same,TGI,[68],> 100 µM
same,TGI,[69],> 100 µM
CC1C=CC(O)[C@]2(CO)CC3(CCC12)OCCO3 (some centres not stated),TGI,[1],> 100 µM
same,TGI,[2],> 100 µM
same,TGI,[3],> 100 µM
same,TGI,[4],> 100 µM
same,TGI,[5],> 100 µM
same,TGI,[6],> 100 µM
same,TGI,[7],> 100 µM
same,TGI,[8],> 100 µM
same,TGI,[10],> 100 µM
same,TGI,[11],> 100 µM
same,TGI,[12],> 100 µM
same,TGI,[13],> 100 µM
same,TGI,[14],> 100 µM
same,TGI,[15],> 100 µM
same,TGI,[16],> 100 µM
same,TGI,[17],> 100 µM
same,TGI,[18],> 100 µM
same,TGI,[19],> 100 µM
same,TGI,[20],> 100 µM
same,TGI,[21],> 100 µM
same,TGI,[22],> 100 µM
same,TGI,[23],> 100 µM
same,TGI,[24],> 100 µM
same,TGI,[25],> 100 µM
same,TGI,[27],> 100 µM
same,TGI,[28],> 100 µM
same,TGI,[29],> 100 µM
same,TGI,[30],> 100 µM
same,TGI,[31],> 100 µM
same,TGI,[32],> 100 µM
same,TGI,[33],> 100 µM
same,TGI,[34],> 100 µM
same,TGI,[35],> 100 µM
same,TGI,[36],> 100 µM
same,TGI,[37],> 100 µM
same,TGI,[38],> 100 µM
same,TGI,[58],> 100 µM
same,TGI,[40],> 100 µM
same,TGI,[59],> 100 µM
same,TGI,[41],> 100 µM
same,TGI,[42],> 100 µM
same,TGI,[43],> 100 µM
same,TGI,[45],> 100 µM
same,TGI,[46],> 100 µM
same,TGI,[47],> 100 µM
same,TGI,[48],> 100 µM
same,TGI,[49],> 100 µM
same,TGI,[50],> 100 µM
same,TGI,[51],> 100 µM
same,TGI,[52],> 100 µM
same,TGI,[53],> 100 µM
same,TGI,[54],> 100 µM
same,TGI,[55],> 100 µM
same,TGI,[56],> 100 µM
